These results are taken from patent US11788146B2, “Methods for therapeutics prescreening in bodily fluids” (BARCODE DIAGNOSTICS LTD., priority 2017, dated 2023).

In test [1] the test system is 4T1 cells. As to conditions: cited from earlier work.
Test [2] has as its system triple negative breast cancer tumor. The test can be described thus: Barcode analysis in live and dead tumor cells after injection of liposome mixes. In kind it is in vivo, BALB/c female mice. The note with it: 5%, 1% or 0.1% of ETD liposome mixes; 48 hours post injection; patent regards it as likely artifact. The text has this: FIGS. 1A-C: Detection of barcodes from liposome mixes with equal relative drug concentrations. Bar charts showing the potency of gemcitabine, cisplatin and doxorubicin against triple negative breast cancer tumors when the drugs are provided at (1A) 5%, (1B) 1%, and (1C) 0.1% of the effective therapeutic dose (ETD). Potency of the drugs was defined as the ratio of the amount of a barcode in dead cells to the amount of that barcode in live cells.
Each drug has its own specific effective therapeutic dose […], and in order to test efficacy it is reasonable that each liposome mix (a mix of all three types of liposomes to be injected together) should have the same relative amount of each drug. That is, in order to determine an ideal dose, batches of mixed liposomes were generated in which all three drugs were present in a concentration that was either 5%, 1% or 0.1% of the effective therapeutic dose. Table 2 provides the amounts (in ul) of each liposome batch that were added to the mix in order to provide each total dose.
Cell from a triple negative breast cancer tumor were transplanted to the fat pad of BALB/c female mice and allowed to grow to form tumors in the mice. The mice were separated into 3 groups and then each group was injected with the 5%, 1% or 0.1% liposome mixes. […]

The test system of test [3] is 4T1 cells. As to conditions: cited from earlier work. This is another data set of the same source.

Read-outs that look alike come from different tables or passages of the source.

For `N.N.[Cl][Pt][Cl]` [cisplatin], the “Sensitivity of 4T1 cells” value in the test with 4T1 cells [1] was “highly sensitive”.
Regarding `COc1cccc2c1C(=O)c1c(O)c3c(c(O)c1C2=O)C[C@@](O)(C(=O)CO)C[C@@H]3O[C@H]1C[C@H](N)[C@H](O)[C@H](C)O1` [doxorubicin], in the test on 4T1 cells [1], the “Resistance of 4T1 cells” value is listed as “become resistant” and the “Sensitivity of 4T1 cells” value is given as “less so”.
Turning to `Nc1ccn([C@@H]2O[C@H](CO)[C@@H](O)C2(F)F)c(=O)n1` [Gemcitabine], in test [2], the “Effectiveness relative to the other two drugs” value is on record as greater than 10 fold and the “Potency (ratio of barcode in dead cells to barcode in live cells), ranking” value is listed as “most effective treatment”. Besides, the “Effect on tumor growth” value in the test with 4T1 cells [3] (at later time points) is “not be effective”. The “Effect on tumor growth” value in the test on 4T1 cells [3] (within the first couple of days of treatment) was “retards tumor growth”.
